In PMC6351562, “Structure, function, and inhibition of drug reactivating human gut microbial β-glucuronidases” (Scientific Reports, 2019):

Tests used:
[1] = system: GUS activity in faecal extracts; assay: pNPG processing assay in faecal extracts of DCF-treated mice; details: single dose DCF 60 mg/kg intraperitoneal, faeces 12 hours after, 1 mM pNPG, pH 7.4
[2] = target: T1, Ruminococcus gnavus GUS (RgGUS) (Mediterraneibacter gnavus, UniProt A0A2N5PVZ8); assay type: biochemical; details: pNPG as substrate; optimal pH 6.5; apparent value estimated at low pNPG concentrations
T1 sequence (A0A2N5PVZ8 1-603): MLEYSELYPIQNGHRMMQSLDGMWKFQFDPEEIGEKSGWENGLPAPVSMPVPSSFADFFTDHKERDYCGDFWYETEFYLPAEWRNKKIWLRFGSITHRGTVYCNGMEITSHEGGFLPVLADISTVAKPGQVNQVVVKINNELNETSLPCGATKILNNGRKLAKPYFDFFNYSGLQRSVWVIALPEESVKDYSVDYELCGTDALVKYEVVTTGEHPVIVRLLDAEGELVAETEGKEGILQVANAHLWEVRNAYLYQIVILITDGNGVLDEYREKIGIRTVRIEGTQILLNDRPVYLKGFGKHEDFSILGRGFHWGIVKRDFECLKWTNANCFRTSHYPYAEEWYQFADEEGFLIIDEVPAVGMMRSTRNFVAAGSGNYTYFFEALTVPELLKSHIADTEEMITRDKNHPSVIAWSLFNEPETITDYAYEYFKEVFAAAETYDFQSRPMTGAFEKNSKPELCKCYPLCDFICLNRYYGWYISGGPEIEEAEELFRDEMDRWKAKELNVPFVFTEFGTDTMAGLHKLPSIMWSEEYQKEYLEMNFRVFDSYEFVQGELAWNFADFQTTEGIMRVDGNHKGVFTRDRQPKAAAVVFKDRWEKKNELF

BdGUS (−)CBM Loop mutant = assay: pNPG processing by BdGUS (−)CBM Loop mutant; details: deletion of CBM loop of BdGUS; Fig. S13a
[3] = target: T2, Faecalibacterium prausnitzii GUS (FpGUS) (Faecalibacterium duncaniae, UniProt C7H4D2); details: pNPG as substrate; optimal pH 6.0; 37 °C
T2 sequence (C7H4D2 1-608): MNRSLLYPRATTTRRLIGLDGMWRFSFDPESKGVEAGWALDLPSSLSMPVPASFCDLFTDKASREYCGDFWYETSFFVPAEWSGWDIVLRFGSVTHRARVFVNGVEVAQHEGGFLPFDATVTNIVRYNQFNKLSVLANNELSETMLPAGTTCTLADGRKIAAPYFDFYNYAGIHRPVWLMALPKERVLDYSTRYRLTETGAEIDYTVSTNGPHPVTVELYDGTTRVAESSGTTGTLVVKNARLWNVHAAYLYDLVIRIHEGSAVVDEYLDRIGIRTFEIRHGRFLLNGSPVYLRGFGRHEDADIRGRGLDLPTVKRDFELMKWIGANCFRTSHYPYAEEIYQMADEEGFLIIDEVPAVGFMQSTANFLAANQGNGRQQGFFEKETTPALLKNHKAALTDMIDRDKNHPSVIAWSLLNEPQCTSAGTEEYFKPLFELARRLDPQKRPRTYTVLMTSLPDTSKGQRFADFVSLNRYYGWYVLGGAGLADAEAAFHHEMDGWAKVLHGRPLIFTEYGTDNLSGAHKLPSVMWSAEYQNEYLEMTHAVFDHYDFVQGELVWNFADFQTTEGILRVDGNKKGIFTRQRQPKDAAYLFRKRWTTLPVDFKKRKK

EeGUS (−)EeLoop mutant = assay: pNPG processing by EeGUS (−)EeLoop mutant; details: deletion of residues M149 to A159 (Ee Extra Loop); Fig. S13c
[4] = target: T3, Lactobacillus rhamnosus GUS (LrGUS) (Lacticaseibacillus rhamnosus, UniProt A0A2A5L2J1); details: pNPG as substrate; optimal pH 4.5; 37 °C
T3 sequence (A0A2A5L2J1 1-603): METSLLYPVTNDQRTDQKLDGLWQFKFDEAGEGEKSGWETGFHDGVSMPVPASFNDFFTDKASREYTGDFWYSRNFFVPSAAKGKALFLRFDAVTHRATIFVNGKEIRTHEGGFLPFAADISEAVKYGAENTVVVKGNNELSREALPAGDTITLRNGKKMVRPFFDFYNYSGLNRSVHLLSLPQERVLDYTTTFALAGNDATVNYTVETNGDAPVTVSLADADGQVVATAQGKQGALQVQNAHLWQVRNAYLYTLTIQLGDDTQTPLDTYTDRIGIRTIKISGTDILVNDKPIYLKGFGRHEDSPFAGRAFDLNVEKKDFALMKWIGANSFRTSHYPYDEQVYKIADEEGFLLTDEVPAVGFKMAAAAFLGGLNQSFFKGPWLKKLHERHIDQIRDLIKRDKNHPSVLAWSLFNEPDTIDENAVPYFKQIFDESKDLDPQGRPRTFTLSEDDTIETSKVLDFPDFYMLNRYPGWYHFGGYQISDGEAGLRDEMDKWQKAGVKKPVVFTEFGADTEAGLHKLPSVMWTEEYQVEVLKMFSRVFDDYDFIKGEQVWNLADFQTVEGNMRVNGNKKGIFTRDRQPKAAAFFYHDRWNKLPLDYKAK

[5] = target: Clostridium perfringens GUS (CpGUS) (Clostridium perfringens, UniProt Q8VNV4); details: pH 6.5
E. coli GUS (EcGUS) = E. coli GUS (EcGUS) (Escherichia coli, UniProt P05804); details: pNPG as substrate; optimal pH 7.4; cited from earlier work
Sequence of E. coli GUS (EcGUS) (P05804 whole entry): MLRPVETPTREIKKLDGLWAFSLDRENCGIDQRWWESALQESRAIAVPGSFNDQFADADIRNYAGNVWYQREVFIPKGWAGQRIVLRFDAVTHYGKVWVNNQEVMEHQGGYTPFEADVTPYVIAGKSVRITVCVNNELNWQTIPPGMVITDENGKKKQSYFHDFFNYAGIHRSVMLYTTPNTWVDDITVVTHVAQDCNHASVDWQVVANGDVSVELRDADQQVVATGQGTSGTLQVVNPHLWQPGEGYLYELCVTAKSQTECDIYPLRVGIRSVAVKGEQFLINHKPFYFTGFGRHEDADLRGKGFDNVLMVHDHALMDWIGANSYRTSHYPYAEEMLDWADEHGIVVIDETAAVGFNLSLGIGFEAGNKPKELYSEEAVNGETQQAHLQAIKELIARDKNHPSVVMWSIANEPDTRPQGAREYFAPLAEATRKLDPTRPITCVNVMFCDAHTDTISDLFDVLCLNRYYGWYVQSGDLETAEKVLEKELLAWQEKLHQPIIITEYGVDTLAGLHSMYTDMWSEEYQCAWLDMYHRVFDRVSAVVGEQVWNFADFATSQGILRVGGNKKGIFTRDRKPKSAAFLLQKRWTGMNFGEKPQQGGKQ

Row | SMILES | GUS activity (pNPG processing) in faecal extracts compared to pre-treatment levels [1] | kcat [2] [s⁻¹] | activity of mutant with pNPG (in words) (BdGUS (−)CBM Loop mutant) | kcat [3] [s⁻¹] | pNPG cleavage rate of mutant relative to WT (EeGUS (−)EeLoop mutant) [%] | kcat [4] [s⁻¹] | kcat [5] [s⁻¹] | Km (E. coli GUS (EcGUS)) [µM] | kcat (s^−1) (E. coli GUS (EcGUS))
1 | O=C(O)Cc1ccccc1Nc1c(Cl)cccc1Cl [DCF, diclofenac] | increases GUS activity |  |  |  |  |  |  |  | 
2 | O=C(O)[C@H]1O[C@@H](Oc2ccc([N+](=O)[O-])cc2)[C@H](O)[C@@H](O)[C@@H]1O [pNPG, p-nitrophenol-β-D-glucuronide] |  | 2.8 | inactive | 58 | 9 | 10.0 | 57 | 130 ± 10 | 120 ± 10^a s^−1
